# Laboratory results from publication PMC12181424, “A genetically tractable branch of environmental Pedobacter from the phylum Bacteroidota represents a hotspot for natural product discovery” (Scientific Reports, 2025).
# Non-standard residues stand in square brackets, D forms with d. Residues, ends and D or L forms follow the SMILES beside them. *: point of attachment. Isovaleryl = CC(C)CC(=O)*; ΔVal = CC(C)=C(N)C(=O)O; X1 = CC[C@H](C)C(=O)*
# Tests used:
# [1] = test system: Escherichia coli ATCC35218; type: cell-based
# [2] = test system: Mycobacterium smegmatis ATCC607; type: cell-based
# [3] = test system: Staphylococcus aureus ATCC33592; type: cell-based
# Candida albicans FH2173 = type: cell-based
# [4] = test system: Septoria tritici MUCL45407; type: cell-based
# [5] = test system: human cysteine protease cathepsin B; experiment: Cysteine protease inhibition testing; type: biochemical; conditions: tested concentration 20 µM; procedure of Brinkmann et al.
# [6] = test system: human cysteine protease cathepsin L; experiment: Cysteine protease inhibition testing; type: biochemical; conditions: tested concentration 20 µM; procedure of Brinkmann et al.
# rhodesain = conditions: tested concentration 20 µM; procedure of Brinkmann et al.
# From the text: The cryopeptins are linear lipopeptides containing the non-proteinogenic amino acid dehydrovaline. This amino acid is a rare building block, and its occurrence is yet limited to linear peptides. For instance, dehydrovaline is found in cytotoxic yakuamides from the sponge Ceratopsion sp[42]. and in the myxobacterial antibiotic myxovalargin[43]. […] In addition, 4 and 5 underwent screening against the human cysteine proteases cathepsin B and L, and rhodesain, the cysteine protease of Trypanosoma brucei rhodesiense according to the procedure described in[45].
# The minimum inhibitory concentrations (MIC) of pure compounds were determined as described by Orban et al.3 Pure compounds were screened against Escherichia coli ATCC35218, Mycobacterium smegmatis ATCC607, Staphylococcus aureus ATCC33592, Candida albicans FH2173 and Septoria tritici MUCL45407. Protease testings (human cysteine proteases cathepsin B and L, trypanosomal cysteine protease rhodesain) were performed at concentrations of 20 μM as described in Brinkmann et al.4.
# [7] = test system: P. cryoconitis DSM 14825^T; experiment: Antibiotic sensitivity screen of wild-type strain (choice of selection marker); type: cell-based, Pedobacter cryoconitis; conditions: P. cryoconitis DSM 14825^T wild type
# From the text: (§1) We built a random transposon insertion plasmid (pCRYO1 (Fig. S2)) based on a HIMAR transposon pSAMbt system, initially designed for Bacteroides thetaiotaomicron in which we introduced the constitutive P. cryoconitis promoters of gyrB and rpl13 and used erythromycin as a resistance marker[41] (Fig. 3A). We obtained erythromycin-resistant clones by conjugation and electroporation and confirmed the presence of the ermR gene by colony PCR (Material and Methods).
# (§2) To genetically modify P. cryoconitis, we first screened different antibiotics (streptomycin, ampicillin, kanamycin, apramycin, chloramphenicol, and erythromycin) against P. cryoconitis PAMC 27485 and P. cryoconitis DSM 14825^T. Only erythromycin (100 µg/ml) and chloramphenicol (150 µg/ml) were effective and selected as markers. A transposon plasmid, pCRYO-01 was modified based on pSAM bt[30] by assembling PCR-amplified regions upstream of the P. cryoconitis PAMC 27485 gyrB (AMQ00279.1, 228 bps) and rpl13 genes (AMQ00867.1, 178 bps) with the erythromycin resistance (ermR) and the transposase genes via Gibson Assembly. PCR reactions were carried out using Q5 polymerase (New England Biolabs) as specified by the manufacturer. Conjugation experiments were performed using E. coli WM3064/pCRYO-01 and P. cryoconitis (overnight cultures) on LB, POM, and R2A (with 5 mM final MgCl2) agar with different donor-recipient ratios (1:1, 2:1, 3:1) for 48 h. Cells were scraped off, serially diluted, and plated on R2A agar plates with erythromycin (50, 100, 150, and 200 µg/ml). Erythromycin-resistant colonies were tested for ermR presence and plasmid backbone absence by colony PCR. A 3:1 donor-recipient ratio at 23 °C yielded the highest number of transformants. Dilution of the inoculum at 10^− 1 or 10^− 2 was optimal for single colonies, with more transformants observed in P. cryoconitis PAMC 27485 compared to P. cryoconitis DSM 14825^T. For electroporation, P. cryoconitis PAMC 27485 cells (OD 0.4) were made competent by washing 3-times with ice-cold 10% glycerol (centrifugation at 5000 rpm). Aliquots of 50 µl were mixed with pCRYO1. After electroporation (12.5 kV/cm), cells were cultured without antibiotics for 5 h, then plated on R2A with 150 µg/ml erythromycin. Colonies appeared within 3 days, with 100% carrying the transposon cassette, though efficiency was lower than with conjugation. Electroporation of competent cells stored at -80 °C was also possible.
# [8] = test system: P. cryoconitis PAMC 27485; experiment: as above; type: cell-based, Pedobacter cryoconitis; conditions: P. cryoconitis PAMC 27485 wild type
# From the text: as §1, §2
# [9] = test system: bacterial and fungal indicator strains; experiment: Screening against bacterial and fungal indicator strains (whole panel, as summarised in the text); type: cell-based; conditions: summary in the text of Table S11; no growth inhibitory effects
smiles,measurement,setting,value
CC(C)=C(NC(=O)[C@H](Cc1ccccc1)NC(=O)CC(C)C)C(=O)N[C@@H](CCCNC(=N)N)C(=O)NC(C(=O)N[C@@H](CC(C)C)C(=O)O)=C(C)C [cryopeptin E (5)] (Isovaleryl-F[ΔVal]R[ΔVal]L-OH; N-terminus and C-terminus assumed),MIC Escherichia coli ATCC 35218,[1],>128 µg/mL
same,MIC Myobacterium smegmatis ATCC607,[2],>128 µg/mL
same,MIC Staphylococcus aureus ATCC 33592,[3],>128 µg/mL
same,MIC Candida albicans FH2173,Candida albicans FH2173,>128 µg/mL
same,MIC Septoria tritici MUCL45407,[4],>128 µg/mL
same,"protease inhibitory activity, cathepsin B",[5],no protease inhibitory activity was observed
same,"protease inhibitory activity, cathepsin L",[6],no protease inhibitory activity was observed
same,"protease inhibitory activity, rhodesain",rhodesain,no protease inhibitory activity was observed
CC[C@H]1OC(=O)[C@H](C)[C@@H](O[C@H]2C[C@@](C)(OC)[C@@H](O)[C@H](C)O2)[C@H](C)[C@@H](O[C@@H]2O[C@H](C)C[C@H](N(C)C)[C@H]2O)[C@](C)(O)C[C@@H](C)C(=O)[C@H](C)[C@@H](O)[C@]1(C)O [erythromycin],concentration that inhibited the growth of the wild-type strain,[7],100 µg/mL
same,concentration that inhibited the growth of the wild-type strain,[8],100 µg/mL
O=C(N[C@H](CO)[C@H](O)c1ccc([N+](=O)[O-])cc1)C(Cl)Cl [chloramphenicol],concentration that inhibited the growth of the wild-type strain,[7],150 µg/mL
same,concentration that inhibited the growth of the wild-type strain,[8],150 µg/mL
CC[C@H](C)C(=O)N[C@@H](Cc1ccccc1)C(=O)NC(C(=O)N[C@@H](CCCNC(=N)N)C(=O)NC(C(=O)N[C@@H](CC(C)C)C(=O)O)=C(C)C)=C(C)C [cryopeptin D (4)] (X1-F[ΔVal]R[ΔVal]L-OH),MIC Escherichia coli ATCC 35218,[1],>128 µg/mL
same,MIC Myobacterium smegmatis ATCC607,[2],>128 µg/mL
same,MIC Staphylococcus aureus ATCC 33592,[3],>128 µg/mL
same,MIC Candida albicans FH2173,Candida albicans FH2173,>128 µg/mL
same,MIC Septoria tritici MUCL45407,[4],>128 µg/mL
same,Minimal inhibitory concentration against bacterial and fungal indicator strains,[9],> 128 µg/mL
same,"protease inhibitory activity, cathepsin B",[5],no protease inhibitory activity was observed
same,"protease inhibitory activity, cathepsin L",[6],no protease inhibitory activity was observed
same,"protease inhibitory activity, rhodesain",rhodesain,no protease inhibitory activity was observed
